Non-standard residues stand in square brackets, D forms with d. Residues, ends and D or L forms follow the SMILES beside them. N(1S-Me-propyl)Gly = CC[C@H](C)NCC(=O)O; Nspe = C[C@H](NCC(=O)O)c1ccccc1; Nlys = NCCCCNCC(=O)O
Biological target: T1, Aβ fibrils (Homo sapiens, UniProt P05067)
T1 construct: aliquots of Aβ(1-40) monomer, purified via size exclusion chromatography on Superdex 75
Experiment: Dot blot assay with LOC antibody binding to Aβ fibrils
Type: biochemical
Procedure: The results of the ThT assay were confirmed using a dot blot assay with antibodies capable of binding to Aβ fibrils, but not Aβ monomers or pre-fibrils (LOC, available from Millipore). Thus, reduction of signal in the dot blot as compared to control is indicative of the peptoid blocking fibril formation. The intensity of the dot blot signal detecting the binding of the LOC antibody to the Aβ fibrils after incubation with a control was set to 100% to indicate maximal fibril formation. This can then be compared to the intensity of the LOC antibody dot blot signal after incubation of the Aβ with each of the peptoids. A reduction in the percent of antibody binding is indicative of inhibition of aggregation of Aβ in the assay. […] To control for the signal being at the maximum intensity parallel samples were diluted in half with 40 mM Tris buffer before being blotted (1:2). After 2 hours of incubation, none of the peptoids were capable of inhibiting aggregation of Aβ at a 1:1 dilution, likely because the antibody signal is too saturated to detect any effect of the peptoids.

T1 sequence (P05067 672-711): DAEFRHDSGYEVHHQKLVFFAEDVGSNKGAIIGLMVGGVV

## CC[C@H](C)N(CC(=O)N(CC(=O)N(CC(=O)N(CC(=O)N(CC(=O)N(CC(=O)N(CC(N)=O)[C@@H](C)c1ccccc1)[C@@H](C)c1ccccc1)[C@@H](C)CC)[C@@H](C)c1ccccc1)[C@@H](C)c1ccccc1)[C@@H](C)CC)C(=O)CNCCCCN [Peptoid 2] (H-[Nlys][N(1S-Me-propyl)Gly][N(1S-Me-propyl)Gly][Nspe][Nspe][N(1S-Me-propyl)Gly][Nspe][Nspe]-NH2)
Time 0 hr, dilution 1:1
  LOC antibody dot blot signal, percent of control (control = 100%): 73.03%
Time 0 hr, dilution 1:2
  LOC antibody dot blot signal, percent of control (control = 100%): 56.91%
Time 2 hr, dilution 1:1
  LOC antibody dot blot signal, percent of control (control = 100%): 108.61%
Time 2 hr, dilution 1:2
  LOC antibody dot blot signal, percent of control (control = 100%): 89.63%
